Measured values: ChEMBL document CHEMBL1201862, “PubChem BioAssay data set” (2004)
Calls of active or inactive are those of the source.

What was measured:
[1] = biological target: Luciferin 4-monooxygenase (Photinus pyralis, UniProt P08659); test: inhibition of purified Photinus pyralis luciferase – biochemical, luminescence, dose response (AID 1891)
[2] = Luminescence Cell-Based Dose Confirmation HTS to Identify Inhibitors of Platelet Dense Granule Release. [Related pubchem assays: 1663 (Primary HTS), 1678 (Summary of Project)]; type: functional
[3] = alpha-synuclein stem-loop luciferase translation blockers – H4 neuroglioma cells, luminescence, confirmation (AID 1988); type: functional, cell-based
[4] = luciferase reporter signal suppression in cells – H4 neuroglioma cells, luminescence, dose response (AID 1990); type: functional, cell-based
[5] = Luminescence Cell-Based Dose Response HTS to Identify Inhibitors of 5'UTR Stem-Loop Driven Prion Protein mRNA Translation in H4 Neuroglioblastoma Cells. [Related pubchem assays: 1827 (Project Summary), 1813 (Primary HTS)]; type: functional
Cytochrome P450 2D6 = Cytochrome P450 2D6 (Homo sapiens, UniProt P10635);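 further: CYP2D6 member of a cytochrome P450 panel assay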
Sequence of Cytochrome P450 2D6 (P10635 whole entry): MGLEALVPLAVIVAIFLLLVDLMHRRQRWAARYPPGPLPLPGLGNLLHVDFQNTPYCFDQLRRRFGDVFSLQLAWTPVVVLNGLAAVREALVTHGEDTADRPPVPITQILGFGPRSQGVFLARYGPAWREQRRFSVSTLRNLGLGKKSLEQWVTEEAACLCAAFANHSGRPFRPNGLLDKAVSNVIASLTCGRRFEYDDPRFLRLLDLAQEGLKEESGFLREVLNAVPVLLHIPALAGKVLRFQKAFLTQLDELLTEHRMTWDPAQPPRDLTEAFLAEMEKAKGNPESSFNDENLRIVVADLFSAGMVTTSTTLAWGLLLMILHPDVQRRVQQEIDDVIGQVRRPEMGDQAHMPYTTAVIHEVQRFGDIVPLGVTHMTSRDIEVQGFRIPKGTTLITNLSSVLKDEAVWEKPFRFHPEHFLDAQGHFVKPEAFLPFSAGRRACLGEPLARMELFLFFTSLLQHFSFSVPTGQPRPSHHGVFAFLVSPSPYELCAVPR

Cytochrome P450 1A2 = biological target: T1, Cytochrome P450 1A2 (Homo sapiens, UniProt P05177);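 further: PubChem cytochrome P450 panel assay, CYP1A2 panel member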
T1 sequence (P05177 whole entry): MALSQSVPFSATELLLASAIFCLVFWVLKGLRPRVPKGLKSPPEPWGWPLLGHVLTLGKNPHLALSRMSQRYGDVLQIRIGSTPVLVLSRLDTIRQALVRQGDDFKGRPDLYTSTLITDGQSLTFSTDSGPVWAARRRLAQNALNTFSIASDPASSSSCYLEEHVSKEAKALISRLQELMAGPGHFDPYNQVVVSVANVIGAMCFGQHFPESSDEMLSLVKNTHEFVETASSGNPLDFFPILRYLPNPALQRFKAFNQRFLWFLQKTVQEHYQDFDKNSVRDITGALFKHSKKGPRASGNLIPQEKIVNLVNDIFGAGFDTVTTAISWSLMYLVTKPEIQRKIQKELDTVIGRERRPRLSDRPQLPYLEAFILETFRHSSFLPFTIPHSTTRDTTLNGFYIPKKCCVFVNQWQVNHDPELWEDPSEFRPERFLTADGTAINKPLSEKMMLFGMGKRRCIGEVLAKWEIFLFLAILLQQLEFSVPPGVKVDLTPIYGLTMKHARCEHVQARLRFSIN

Cytochrome P450 2C19 = Cytochrome P450 2C19 (Homo sapiens, UniProt P33261); test: Cytochrome panel assay with activity outcomes. Panel member name: p450-cyp2c19 Compounds with AC50 equal or less than 10 uM are considered active; type: functional
Sequence of Cytochrome P450 2C19 (P33261 whole entry): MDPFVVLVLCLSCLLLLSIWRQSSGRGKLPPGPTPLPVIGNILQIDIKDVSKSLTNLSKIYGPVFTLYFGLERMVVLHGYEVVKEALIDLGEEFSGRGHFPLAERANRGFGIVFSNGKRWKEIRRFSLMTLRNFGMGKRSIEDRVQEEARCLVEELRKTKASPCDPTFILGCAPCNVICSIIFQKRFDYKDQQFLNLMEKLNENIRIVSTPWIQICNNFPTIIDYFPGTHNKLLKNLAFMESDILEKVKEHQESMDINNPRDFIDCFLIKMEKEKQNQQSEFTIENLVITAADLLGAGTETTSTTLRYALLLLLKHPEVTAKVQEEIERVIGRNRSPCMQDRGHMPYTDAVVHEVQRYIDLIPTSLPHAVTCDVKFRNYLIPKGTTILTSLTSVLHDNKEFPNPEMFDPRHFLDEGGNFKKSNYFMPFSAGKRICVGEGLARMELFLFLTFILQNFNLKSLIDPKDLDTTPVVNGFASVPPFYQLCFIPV

Cytochrome P450 2C9 = Cytochrome P450 2C9 (Homo sapiens, UniProt P11712)
Sequence of Cytochrome P450 2C9 (P11712 whole entry): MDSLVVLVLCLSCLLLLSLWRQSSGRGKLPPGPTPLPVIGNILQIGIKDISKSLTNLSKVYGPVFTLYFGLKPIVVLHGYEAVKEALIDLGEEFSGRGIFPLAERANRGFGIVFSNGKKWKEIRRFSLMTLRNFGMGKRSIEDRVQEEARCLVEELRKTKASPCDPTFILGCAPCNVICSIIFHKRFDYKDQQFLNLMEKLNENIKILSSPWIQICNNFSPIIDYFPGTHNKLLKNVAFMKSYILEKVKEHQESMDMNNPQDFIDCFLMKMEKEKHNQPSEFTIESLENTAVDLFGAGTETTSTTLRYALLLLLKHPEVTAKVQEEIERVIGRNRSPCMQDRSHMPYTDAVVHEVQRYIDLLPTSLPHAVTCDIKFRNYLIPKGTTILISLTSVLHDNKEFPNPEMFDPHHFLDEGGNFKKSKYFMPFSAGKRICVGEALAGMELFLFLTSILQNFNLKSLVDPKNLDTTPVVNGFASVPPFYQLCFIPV

[6] = Luminescence Cell-Based Dose Retest to Confirm Inhibitors of Cancer Stem Cells. [Related pubchem assays (depositor defined):AID2717, AID2721]; type: functional; conditions: Homo sapiens
[7] = Luminescence Cell-Based Dose Response HTS to Identify Activators of Luciferase Translation or Activity in H4 […] Cells. [Related pubchem assays: 1829 (Project Summary), 1814 (Primary HTS)]; type: functional
H4 = test: Luminescence Cell-Based Dose Response HTS to Identify Activators of 5'UTR Stem-Loop Driven Prion Protein mRNA Translation in H4 Neuroglioblastoma Cells. [Related pubchem assays: 1829 (Project Summary), 1814 (Primary HTS)]; type: functional; conditions: Homo sapiens
[8] = Luminescence Cell-Based Dose Confirmation HTS to Identify Activators of 5'UTR Stem-Loop Driven Alpha-Synuclein mRNA Translation in H4 Neuroglioblastoma Cells. [Related pubchem assays: 1829 (Project Summary), 1814 (Primary HTS)]; type: functional
[9] = biological target: T2, Zinc finger protein mex-5 (Caenorhabditis elegans, UniProt Q9XUB2); test: potency of MEX-5 RNA-binding blockers – biochemical, C. elegans, fluorescence polarization, dose response (AID 1960)
T2 sequence (Q9XUB2 whole entry): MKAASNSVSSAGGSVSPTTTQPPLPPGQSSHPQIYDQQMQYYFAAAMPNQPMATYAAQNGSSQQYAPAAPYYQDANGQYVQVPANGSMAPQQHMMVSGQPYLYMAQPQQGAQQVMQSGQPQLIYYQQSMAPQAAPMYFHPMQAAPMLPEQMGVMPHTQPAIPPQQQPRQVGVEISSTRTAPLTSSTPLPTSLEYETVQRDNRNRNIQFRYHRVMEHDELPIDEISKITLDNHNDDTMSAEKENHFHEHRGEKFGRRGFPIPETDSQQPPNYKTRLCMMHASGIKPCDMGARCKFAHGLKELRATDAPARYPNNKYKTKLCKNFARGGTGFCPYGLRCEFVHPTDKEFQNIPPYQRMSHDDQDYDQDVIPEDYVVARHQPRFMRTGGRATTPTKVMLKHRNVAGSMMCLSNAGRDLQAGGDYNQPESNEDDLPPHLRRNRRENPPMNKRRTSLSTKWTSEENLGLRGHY

[10] = biological target: T3, RNA-binding protein pos-1 (Caenorhabditis elegans, UniProt G5EF15); test: disruptors of C. elegans POS-1 RNA interaction – biochemical, fluorescence polarization, dose response (AID 1964);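 further: purified POS-1 fused to maltose binding protein made in E. coli; potency of compounds blocking POS-1 binding to fluorescent RNA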
T3 sequence (G5EF15 whole entry): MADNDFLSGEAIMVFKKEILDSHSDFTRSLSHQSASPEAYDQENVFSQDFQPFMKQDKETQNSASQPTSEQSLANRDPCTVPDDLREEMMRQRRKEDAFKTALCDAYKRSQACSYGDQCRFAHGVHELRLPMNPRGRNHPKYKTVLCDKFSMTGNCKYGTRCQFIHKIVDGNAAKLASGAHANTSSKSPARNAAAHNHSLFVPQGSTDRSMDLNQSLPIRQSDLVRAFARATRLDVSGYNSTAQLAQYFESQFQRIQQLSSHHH

Cytochrome P450 3A4 = Cytochrome P450 3A4 (Homo sapiens, UniProt P08684);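 further: CYP3A4 tested as one member of a cytochrome P450 panel screen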
Sequence of Cytochrome P450 3A4 (P08684 whole entry): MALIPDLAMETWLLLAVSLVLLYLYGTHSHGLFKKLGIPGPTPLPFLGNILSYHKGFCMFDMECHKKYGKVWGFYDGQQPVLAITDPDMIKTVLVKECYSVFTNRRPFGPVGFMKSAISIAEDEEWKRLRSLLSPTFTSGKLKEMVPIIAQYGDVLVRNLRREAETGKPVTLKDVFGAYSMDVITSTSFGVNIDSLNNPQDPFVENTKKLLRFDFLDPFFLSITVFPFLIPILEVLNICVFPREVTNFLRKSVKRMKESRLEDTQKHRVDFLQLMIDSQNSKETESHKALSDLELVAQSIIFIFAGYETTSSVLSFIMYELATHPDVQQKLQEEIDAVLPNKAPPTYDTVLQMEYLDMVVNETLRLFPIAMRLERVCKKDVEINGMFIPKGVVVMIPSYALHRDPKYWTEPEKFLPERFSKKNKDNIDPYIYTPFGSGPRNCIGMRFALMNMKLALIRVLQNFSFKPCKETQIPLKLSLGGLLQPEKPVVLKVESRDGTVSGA

[11] = reduction of Shn3 3'UTR-driven luciferase in osteoblasts – cell-based, Clone20 osteoblasts, firefly luciferase, cherry-picked, dose response (AID 624132); type: functional;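 further: firefly luciferase luminescence from reporter carrying the Shn3 3'UTR in osteoblasts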
[12] = non-specific 3'UTR reporter inhibition in Clone20-Shn3RL – cell-based, Renilla luciferase, cherry-picked, counter-screen for Shn3 inhibitor project, dose response (AID 624133); type: functional
Paired box protein Pax-8 = Paired box protein Pax-8 (Homo sapiens, UniProt Q06710); test: PAX8 transcriptional activity inhibition in RMG-I – RMG-I cells, luciferase, cherry-pick, dose response (AID 687027); type: functional, cell-based;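 further: luciferase reporter driven by Pax8 target thyroperoxidase promoter measured by SteadyGlo luminescence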
Sequence of Paired box protein Pax-8 (Q06710 whole entry): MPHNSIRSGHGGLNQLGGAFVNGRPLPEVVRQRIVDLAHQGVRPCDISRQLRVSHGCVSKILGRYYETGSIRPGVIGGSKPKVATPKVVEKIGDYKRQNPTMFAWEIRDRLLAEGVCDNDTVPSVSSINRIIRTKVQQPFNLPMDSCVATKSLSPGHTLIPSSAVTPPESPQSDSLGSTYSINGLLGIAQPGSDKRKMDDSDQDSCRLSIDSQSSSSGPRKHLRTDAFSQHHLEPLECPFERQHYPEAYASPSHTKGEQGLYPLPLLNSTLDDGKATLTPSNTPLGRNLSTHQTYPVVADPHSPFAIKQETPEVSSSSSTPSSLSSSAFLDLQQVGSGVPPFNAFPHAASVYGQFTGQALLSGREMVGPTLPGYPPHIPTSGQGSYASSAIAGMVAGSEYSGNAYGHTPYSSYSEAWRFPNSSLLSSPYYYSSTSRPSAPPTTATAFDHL

cells = type: functional

Sequence of Luciferin 4-monooxygenase (P08659 whole entry): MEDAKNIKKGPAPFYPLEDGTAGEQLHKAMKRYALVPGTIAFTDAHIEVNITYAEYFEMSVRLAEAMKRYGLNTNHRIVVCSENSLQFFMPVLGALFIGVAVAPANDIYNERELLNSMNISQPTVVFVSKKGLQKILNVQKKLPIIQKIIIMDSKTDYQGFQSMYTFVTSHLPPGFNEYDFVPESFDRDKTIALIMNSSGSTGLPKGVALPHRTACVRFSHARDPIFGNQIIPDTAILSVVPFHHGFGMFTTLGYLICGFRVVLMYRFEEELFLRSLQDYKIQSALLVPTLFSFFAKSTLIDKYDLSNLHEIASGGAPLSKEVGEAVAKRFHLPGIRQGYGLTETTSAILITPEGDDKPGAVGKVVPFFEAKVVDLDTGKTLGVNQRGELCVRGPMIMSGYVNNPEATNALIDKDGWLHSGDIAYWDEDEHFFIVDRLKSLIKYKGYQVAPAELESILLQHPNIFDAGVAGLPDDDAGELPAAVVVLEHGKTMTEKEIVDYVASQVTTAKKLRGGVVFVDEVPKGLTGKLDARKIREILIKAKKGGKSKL

COc1ccc(C(=O)Nc2ccccc2C(=O)Nc2cccnc2)cc1
EC50 [1]: 1.61 µM (active) | EC50 [2]: 6.59 µM (active)

COc1ccc(S(=O)(=O)N2CCN(Cc3ccc4c(c3)OCO4)CC2)c2ccccc12
EC50 [1]: > 112 µM (not active) | EC50 [2]: > 112 µM (not active)

CCc1ccc(Oc2coc3cc(OCC(=O)Nc4cc(C)ccc4C)ccc3c2=O)cc1
EC50 [3]: 9.97 µM (active) | EC50 [4]: 18.5 µM (active) | EC50 [5]: 14.8 µM (active)

CCC(NC(=O)C1(C)CC1(Br)Br)c1ccc(C)cc1 (configuration not stated)
AC50 (Cytochrome P450 2D6): 7.94 µM (inconclusive) | AC50 (Cytochrome P450 1A2): 20 µM (inconclusive)

COC(=O)[C@@]1(Cc2ccc(F)cc2)[C@H]2c3cc(C(=O)N4CCCC4)n(Cc4cccc5ccccc45)c3C[C@H]2CN1C(=O)c1ccccc1
AC50 (Cytochrome P450 2C19; read-out: AC50): 7.94 µM (inconclusive) | AC50 (Cytochrome P450 1A2): 15.8 µM (inconclusive)

CC(=O)N1CCC2(CCN(Cc3cc(C(F)(F)F)cc(C(F)(F)F)c3)CC2)CC1
AC50 (Cytochrome P450 1A2): 15.8 µM (inconclusive)

O=C(N[C@@H](c1ccccc1)[C@@H]1C[C@H]1C(=O)NCc1ccccn1)OCc1ccccc1
AC50 (Cytochrome P450 2C9): 20 µM (inconclusive) | AC50 (Cytochrome P450 1A2): 10 µM (inconclusive)

COc1ccc(C(=O)/C=C2/C(=O)Nc3ccccc32)cc1
AC50 [6]: 4.39 µM (active) | EC50 [7]: > 120 µM (not active) | EC50 (H4): 17.1 µM (active) | EC50 [8]: 18.1 µM (active)

CCOC(=O)c1cc(-c2ccccc2)sc1NC(=S)Nc1cc(C)ccn1
AC50 (Cytochrome P450 2C19; read-out: AC50): 6.31 µM (inconclusive) | EC50 [9]: 0.77 µM (inconclusive) | AC50 (Cytochrome P450 2C9): 5.62 µM (inconclusive) | EC50 [10]: 11.1 µM (inconclusive) | AC50 (Cytochrome P450 1A2): 3.55 µM (inconclusive)

O=C(Nc1ccccc1)OC[C@H](CN1CCCCC1)OC(=O)Nc1ccccc1
AC50 (Cytochrome P450 2C19; read-out: AC50): 5.01 µM (inconclusive) | AC50 (Cytochrome P450 1A2): 12.6 µM (inconclusive)

O=c1c2ccccc2c2ccccc2c(=O)n1-c1cc2c3ccccc3ccc2c2ccccc12
AC50 (Cytochrome P450 1A2): 6.31 µM (inconclusive)

O=C(CSCc1ccccc1)Nc1cccc(C(=O)Nc2ccccc2C(=O)O)c1
AC50 (Cytochrome P450 1A2): 15.8 µM (inconclusive)

C=CCNc1nc(N)c([N+](=O)[O-])c(N2CCCCCC2)n1
EC50 [3]: 26.7 µM (active) | EC50 [4]: > 120 µM (not active) | EC50 [5]: > 120 µM (not active)

COC(=O)c1ccc(/C=C/c2c(-c3ccc(OC)cc3)oc3ccccc23)cc1
AC50 [6]: 2.47 µM (active)

N=C(NOC(=O)c1ccccc1Cl)c1cccnc1
EC50 [1]: 23.6 µM (active) | EC50 [2]: > 112 µM (not active)

CC(=O)Nc1ccc(S(=O)(=O)N2CCC(C(=O)NCc3ccco3)CC2)cc1
EC50 [1]: > 112 µM (not active) | EC50 [2]: > 112 µM (not active)

COc1ccc(C)cc1N(C(=O)c1ccccc1F)c1nc2ccccc2s1
EC50 [3]: > 120 µM (not active) | EC50 [4]: > 120 µM (not active) | EC50 [5]: > 120 µM (not active)

O=C1NCCCC1C(=O)Nc1ccccc1C(F)(F)F (configuration not stated)
AC50 (Cytochrome P450 1A2): 39.8 µM (inconclusive)

Cc1nc2ccccc2nc(C)c1=NO
AC50 (Cytochrome P450 2C19): inconclusive | AC50 (Cytochrome P450 1A2): 17.8 µM (inconclusive)

Cc1c(Cc2ccccc2)sc(NC(=O)/C=C/c2cccc3ccccc23)c1C(N)=O
EC50 [3]: 5.84 µM (active) | EC50 [4]: 13.3 µM (inconclusive) | EC50 [5]: 10.9 µM (active)

Cc1cccc(NC(=O)CCCNC(=O)c2ccc(Cl)cc2)n1
EC50 [1]: > 112 µM (not active) | EC50 [2]: 16 µM (active)

CCc1ccc2c(c1)cc(CN(C(S)=Nc1cccc(C)c1)C1CC1)c1nnnn12
AC50 (Cytochrome P450 2C9): 2.82 µM (inconclusive) | AC50 (Cytochrome P450 1A2): 12.6 µM (inconclusive)

OC(CSc1ccccc1Cl)CN1CCN(c2ccc(F)cc2)CC1 (configuration not stated)
EC50 [3]: > 120 µM (not active) | EC50 [4]: > 120 µM (not active) | EC50 [5]: > 120 µM (not active)

O=C(c1cnc2ccc3ccccc3c2c1)c1cc(F)ccc1O
AC50 [6]: 0.562 µM (active)

Cc1ccccc1NC(=O)c1cc(S(=O)(=O)N2CCOCC2)cn1C
EC50 [1]: > 112 µM (not active) | EC50 [2]: > 112 µM (not active)

COc1cccc(OCCCOc2ccccc2C(C)C)c1
AC50 (Cytochrome P450 3A4): 0.0178 µM (inconclusive) | AC50 (Cytochrome P450 2C9): 25.1 µM (inconclusive) | AC50 (Cytochrome P450 1A2): 22.4 µM (inconclusive)

c1ccc(CN2CC[C@@H](CNc3ncnc4ccccc34)C2)cc1
AC50 (Cytochrome P450 1A2): 6.31 µM (inconclusive)

CC(c1ccccc1)N1C(=O)/C(=C/c2ccncc2)SC1=S (configuration not stated)
AC50 [6]: 19 µM (active)

O=C(CCc1ccccc1)NCc1cccnc1
AC50 (Cytochrome P450 2C9): 1 µM (inconclusive) | AC50 (Cytochrome P450 1A2): 31.6 µM (inconclusive)

Cc1ccnc(N/C=C(/NC(=O)c2ccccc2)C(=O)N/N=C\c2ccc(F)cc2)n1
AC50 [11]: > 70 µM (inactive) | AC50 [12]: 26.8 µM (active)

C[C@@H]1CCCCO[C@H](CN(C)Cc2ccc(C(F)(F)F)cc2)[C@H](C)CN([C@@H](C)CO)C(=O)c2cc(NC(=O)Nc3ccc(F)cc3)ccc2O1
AC50 (Paired box protein Pax-8): 8.21 µM (active)

C[C@@H]1CN([C@@H](C)CO)C(=O)Cc2cc(NC(=O)c3ccncc3)ccc2O[C@@H]1CN(C)Cc1ccc(-c2ccccc2)cc1
AC50 (Paired box protein Pax-8): 22.3 µM (active)

CC(C)c1ccc(/C=N/NC(=O)c2ccccn2)cc1
AC50 [6]: 19.5 µM (active) | IC50 (cells): 6.08 µM (active)

COc1cccc(/N=c2\oc3c(C)ncc(CO)c3cc2C(=O)Nc2ccccc2OC)c1
EC50 [3]: > 120 µM (not active) | EC50 [4]: > 120 µM (not active) | EC50 [5]: > 120 µM (not active)

N[C@H](C(=O)O)[C@H](OCc1ccccc1)C(=O)O
AC50 (Cytochrome P450 1A2): 31.6 µM (inconclusive)

c1ccc2[nH]c(-c3cscn3)nc2c1 [THIABENDAZOLE]
AC50 (Cytochrome P450 2C19; read-out: AC50): 7.94 µM (inconclusive) | EC50 [7]: 18.7 µM (active) | AC50 (Cytochrome P450 2D6): 10 µM (inconclusive) | EC50 (H4): 23.7 µM (active) | EC50 [8]: 14.3 µM (active) | AC50 (Cytochrome P450 1A2): 0.126 µM (active)
